{"source": "patent US20210038577A1", "about": "“THIOREDOXIN REDUCTASE INHIBITORS FOR USE IN THE TREATMENT OF CANCER” (Cinda Pharma AB, priority 2018, published 2021)", "key": {"[1]": {"system": "Tregs in TM00098 patient-derived xenografts", "test": "Tumor infiltrated Treg levels by flow cytometry, TM00098 PDX in Hu-CD34-NSG mice", "type": "in vivo", "conditions": "day 41, both donors, versus vehicle / other treatment", "experimental": "Female NSG mice were implanted with human CD34+ hematopoietic stem cells from multiple donors and the level of human CD45+ cells were measured in the peripheral blood 12 weeks post engraftment. Mice with >25% human CD45+ cells in the peripheral blood were determined to have a humanized immune system (Hu-CD34-NSG™) mice and were enrolled into the study. The Hu-CD34-NSG mice were implanted with TM00098 patient-derived xenografts (PDX) subcutaneously on the right flank. The TM00098 PDX cancer cells originate from a primary tumor of a patient suffering from a grade 3 TNBC invasive ductal carcinoma. […] Tumor volume was measured using a digital caliper two times a week for the duration of the study. […] Cell populations was determined by electronic gating (P1=total leukocytes) on the basis of forward versus side scatter. […] The percentage of Tregs of CD45+ cells were calculated. […] Statistical significance (p<0.05) was determined using a Mann-Whitney test."}, "[2]": {"system": "immune cells isolated from human blood donors (neutrophils, PBMC, monocytes, CD8+, CD4+, Tregs)", "test": "Viability of isolated immune cells (MTT assay)", "type": "cell-based", "conditions": "24 h, up to 33 μM", "experimental": "Viability of neutrophils after treatment with OT-1096 for 24 h was assessed using donated blood from a healthy volunteer (HBsAg, HIV I&II negative), (Blood collection date: 1 Jun. 2017) where neutrophils were isolated using dextran sedimentation followed by hypotonic lysis and final isolation by Histopaque 1077 (Sigma-Aldrich). Viability was assessed using an MTT assay.\nViability of PBMC (peripheral blood mononuclear cells) after treatment with OT-1096 for 24 h was assessed using donated blood from two different donors. Donor-1, a healthy volunteer (HBsAg, HIV I&II negative), (Blood collection date: 1 Jun. 2017). […] Viability was assessed using an MTT assay.\nViability of monocytes after treatment with OT-1096 for 24 h was assessed using donated blood from a healthy volunteer (HBsAg, HIV I&II negative), (Blood collection date: 8 Jun. 2017) where monocytes was isolated by Histopaque 1077 (Sigma-Aldrich) followed by purification with MiniMACS system of ‘Miltenyi Biotec’ using CD14 microbeads (Cat No. 130-050-201). Viability was assessed using an MTT assay. […]\nViability of CD4+ cells after treatment with OT-1096 for 24 h was assessed using donated blood from a healthy volunteer (HBsAg, HIV I&II negative) where CD4+ cells were isolated by Histopaque 1077 (Sigma-Aldrich) followed by purification with MiniMACS system of ‘Miltenyi Biotec’ using CD4+ T Cell Isolation Reagent (Cat No. 130-096-533). […]"}}, "data": [{"smiles": "CCCCCCCCS(=O)(=O)c1nc(OC)ccc1[N+](=O)[O-]", "note": "[OT-1096, 6-methoxy-3-nitro-2-(octylsulfonyl)pyridine]", "values": [{"measurement": "levels of tumor infiltrated Tregs (% Tregs of CD45+ cells)", "setting": "[1]", "result": "decreased"}, {"measurement": "cytotoxicity in isolated immune cell populations", "setting": "[2]", "result": "No (or low) cytotoxicity"}]}]}
